From patent US11191855B2, “1,7-diaryl-1,6-heptadiene-3,5-dione derivatives, methods for the production and use thereof” (UNIVERSITÄTSKLINIKUM REGENSBURG, priority 2015, dated 2021) come the findings set out here.

The structures appear in SMILES notation. Where two headings read alike, the source gives them in different places.

Assay [1] concerns E. coli ATCC 25922. The experiment in a line: Phototoxicity test c.1) (LED array 430-435 nm, CFU count by Miles and Misra). Conditions: Escherichia coli, ATCC25922, light or radiation study, light dose 33.8 J/cm^2, approx. 435 nm, 60 min at 9.4 mW/cm^2, vs reference control; for log reduction at 10 µM: read-out: Effectiveness against E. Coli: Reduction in CFU in log10 at concentration of 10 μM; for log reduction at 50 µM: read-out: Effectiveness against E. Coli: Reduction in CFU in log10 at concentration of 50 μM. The assay is classed as cell-based, Escherichia coli. The procedure: (§1) A sample of the bacterial cell Staphylococcus. aureus (ATCC number: 25923) or Escherichia. coli (ATCC number: 25922) was removed from a cryo-freeze culture and cultured under aerobic conditions at 37° C. and 175 rpm overnight in an orbital shaker (MAXQ4000, Thermo Scientific, Dubuque, Iowa, USA). Growth was carried out in 20 mL Todd-Hewitt broth (Carl Roth, Karlsruhe, Germany) supplemented with 0.3% of yeast extract (AppliChem, Darmstadt, Germany).
Subsequently, dilutions (0, 5, 10, […] and 20% v/v of the overnight culture) and their absorptions were measured at 600 nm in triplicate for 100 μL (Infinite 200 M Pro, Tecan, Mannedorf, Switzerland). A calibration graph (Microsoft Excel) was used to calculate the volume which was required to produce 20 mL of a culture with an absorption of 0.05 at 600 nm. The volume calculated for the overnight culture was topped up with Todd-Hewitt broth (composition as above) to 20 mL and incubated for two hours at 37° C. with constant movement (175 rpm, MAXQ4000). The cultures were then in the exponential growth phase; the absorption at 600 nm was between 0.3 and 0.45.
A 2-hour culture was divided into 1800 μL aliquots. After centrifuging at 20° C., 830 rcf, 5 min (5417R centrifuge, Eppendorf, Hamburg, Germany), the pellets were re-suspended in phosphate buffer (Dulbeccos' Modified Phosphate Saline, DPBS, Sigma-Aldrich) with either 10 or 50 μM of the corresponding photosensitizer, wherein the final volume was kept at 1800 μL.
The solutions obtained were immediately incubated on the orbital shaker (see above for parameters) for 5 or 25 minutes.
Three controls were run at the same time for each photosensitizer. The “light only” control contained DPBS without photosensitizer. The “photosensitizer only” (“PS only”) control was incubated like the PDI samples, but not irradiated and kept strictly in darkness. A further control (double negative, “Co−/−”), received neither light nor photosensitizer.
After the incubation, duplicates of the samples (500 μL each) were transferred into a 24-well microtitre plate (Cellstar, Greiner Bio-One, Frickenhausen, Germany). The “PS only” and “Co −/−” samples were placed in their own microtitre plate which was packed in aluminium foil so as to be lightproof.
The irradiation was carried out under constant shaking (MTS4, IKA, Staufen, Germany, 175 rpm) from below on a LED array with maximum homogeneity of the lighting surface. All of the controls were shaken in the same manner. The technical data for the light source are shown in Table 2; the total dose of light applied was 33.8 J/cm^2.
The determination of the colony forming units (CFU) was carried out in accordance with the method published by Miles and Misra (Miles, A A; Misra, S S, Irwin, J O (1938 Nov.). “The estimation of the bactericidal power of the blood” The Journal of hygiene 38 (6): 732-49). In this regard, serial dilutions (1:10) of the corresponding bacterial suspension were produced in DPBS. 5×10 μL of each bacterial dilution was then dripped onto Todd-Hewitt plates (with broth, additional 1.5% agar (Agar-Agar, Kobe I, Roth, Karlsruhe, Germany) and incubated at 37° C. for 24 h. Next, the number of surviving colony forming units was determined. All of the tests were carried out four times.
The photosensitizers were tested against the bacterial strain E. coli ATCC 25922. FIGS. 1-20 show the measured surviving colony forming units (CFU).
The average reference control (arithmetic mean with standard deviation) (no light, no PS) was 3.6×10^8/mL. The logarithmic reduction after illumination is shown with respect to the reference control. The respective upper value, indicated by a *, refers to an incubation period of 5 min and the respectively lower value, indicated by a #, refers to an incubation period of 25 min.

Assay [2] has as its system E. coli ATCC 25922. The experiment in a line: Phototoxicity test c.2) (BlueV light source, emission maximum approx. 420 nm, CFU count). Format: cell-based, Escherichia coli. To be noted: light dose 15.7 J/cm^2, approx. 420 nm, 15 min at 17.5 mW/cm^2, vs reference control. The procedure: as §1
In a second experiment, the photosensitizers (PS) used were dissolved in Millipore water and adjusted to various concentrations. 25 μL of a bacterial suspension grown overnight (˜108/mL) was incubated with 25 μL of photosensitizer solution of the various concentrations at room temperature for 10 seconds in darkness in a 96-well plate.
Next, the suspension was irradiated for 5-20 minutes. For the irradiation, the light source BlueV from Waldmann (Villingen-Schwenningen, Germany) was used, which emits light from 380 to 480 nm (emission maximum at approximately 420 nm). The applied energy density was 17.5 mW/cm^2.
Each experiment was accompanied by three controls in order to exclude side effect of the irradiation/photosensitizer (PS) on the survival of the bacteria: (i) no PS, only light (=light control), (ii) no light, only PS (=dark control) and (iii) neither light nor PS (=reference control). The determination of the colony forming units (CFU) per mL was also carried out in accordance with the method published by Miles, Misra and Irwin described above in section c.1). All of the tests were carried out four times.
The photosensitizers (PS) SACUR-01a, SACUR-03 and SACUR-07 were tested against the bacterial strains S. aureus ATCC 25923 and E. coli ATCC 25922 (FIGS. 21-23). All of the remaining PS were tested against S. aureus ATCC 25923 (FIGS. 24-33). FIGS. 21-33 show the logarithmic reduction after illumination with respect to the reference control.
The average reference control (arithmetic mean with standard deviation) (no light, no PS) was 3.6×10^8/mL for E. coli. The logarithmic reduction after illumination is shown with respect to the reference control.

Where [3] appears, read: 5 min, incubation period 5 min (upper value, *).
[4] abbreviates: 25 min, incubation period 25 min (lower value).

For `COc1cc(/C=C/C(=O)CC(=O)/C=C/c2ccc(OCCN)c(OC)c2)ccc1OCCN.Cl.Cl` [Curcumin 01a hydrochloride], in the assay on E. coli ATCC 25922 [1] (setting [3]), the log reduction at 10 µM was greater than 1 and the log reduction at 50 µM was greater than 5. Also, in the assay on E. coli ATCC 25922 [1] (setting [4]), the log reduction at 10 µM is greater than 2 and the log reduction at 50 µM was greater than 5. Moreover, in the assay on E. coli ATCC 25922 [2], the “Effectiveness against E. Coli: Reduction in CFU in log10 at concentration of 10 μM” value is on record as greater than 4 log10 and the “Effectiveness against E. Coli: Reduction in CFU in log10 at concentration of 50 μM” value is greater than 5 log10.
With `Cl.Cl.Cl.Cl.NCCOc1ccc(/C=C/C(=O)CC(=O)/C=C/c2ccc(OCCN)c(OCCN)c2)cc1OCCN` [Curcumin 03 hydrochloride], in the assay on E. coli ATCC 25922 [1] (setting [3]), the log reduction at 10 µM was greater than 7 and the log reduction at 50 µM is greater than 7. In addition, in the assay on E. coli ATCC 25922 [1] (setting [4]), the log reduction at 10 µM was greater than 7 and the log reduction at 50 µM is greater than 7. Also, in the assay on E. coli ATCC 25922 [2], the “Effectiveness against E. Coli: Reduction in CFU in log10 at concentration of 10 μM” value is listed as greater than 4 log10 and the “Effectiveness against E. Coli: Reduction in CFU in log10 at concentration of 50 μM” value is reported as greater than 5 log10.
